Series [1] relates to rat. As to conditions: Prenatal developmental toxicity study; wistar; Inhalation; Whole-Body; dose end: 20 GD; group: developmental; developmental / developmental malformation / heart / dilatation.
The test system of series [2] is rabbit. The note with it: Prenatal developmental toxicity study; himalayan; Inhalation; Whole-Body; dose end: 29 GD; group: developmental; developmental / developmental malformation / heart / adhesions + developmental / developmental malformation / kidney / dilatation.
The subject of series [3] is rat. As to conditions: Combined chronic toxicity/carcinogenicity; fischer; Oral; Feed; dose end: 365 day; group: systemic; systemic / pathology microscopic / liver / hepatocellular carcinoma + systemic / pathology microscopic / testes / adenoma + systemic / in ….
The test system of series [4] is mouse. The note with it: Combined chronic toxicity/carcinogenicity; other; Oral; Feed; dose end: 365 day; group: systemic; systemic / in life observation / body weight / body weight.
Series [5] deals with dog. The note with it: Chronic toxicity, beagle, Oral, Gavage/Intubation, dose end: 182 day, group: systemic.
Series [6] has as its system dog. The note with it: Sub-acute repeat dose toxicity, beagle, Oral, Gavage/Intubation, dose end: 14 day, group: systemic.
The subject of series [7] is mouse. The note with it: Chronic toxicity, Oral, Gavage/Intubation, dose end: 182 day.
For series [8], the system named is dog. The note with it: Chronic toxicity, beagle, Oral, Gavage/Intubation, dose end: 182 day, group: systemic, systemic / in life observation / clinical signs / defecation (diarrhea) + systemic / in life observation / clinical signs / feces.
Series [9] has as its system mouse. As to conditions: Sub-acute repeat dose toxicity, Oral, Gavage/Intubation, dose end: 14 day, group: systemic.
In series [10] the test system is dog. As to conditions: Sub-acute repeat dose toxicity, beagle, Oral, Gavage/Intubation, dose end: 28 day, group: systemic.
Series [11] has as its system mouse. The note with it: Sub-acute repeat dose toxicity, Oral, Gavage/Intubation, dose end: 28 day.
Series [12] concerns mouse. The note with it: Sub-acute repeat dose toxicity, Oral, Gavage/Intubation, dose end: 28 day. This is another data set of the same source.
The test system of a further series is hamster. The note with it: Subchronic oral toxicity in rodents, golden syrian, Feed, dose end: 13 week, group: systemic.
Series [13] concerns rat. As to conditions: Subchronic oral toxicity in rodents, sprague dawley, Feed, dose end: 13 week, group: systemic.
For series [14], the system named is mouse. As to conditions: Subchronic oral toxicity in rodents, b6c3f1, Feed, dose end: 13 week, group: systemic.
Series [15] has as its system rabbit. As to conditions: Prenatal developmental toxicity study, new zealand white, Oral, Gavage/Intubation, dose end: 28 GD.
For series [16], the system named is rat. As to conditions: Prenatal developmental toxicity study, sprague dawley, Oral, Gavage/Intubation, dose end: 20 GD.
Series [17] has as its system rat. As to conditions: Multigenerational reproductive toxicity study, wistar, Oral, Feed, dose end: 2 generation.
Series [18] deals with mouse. The note with it: Multigenerational reproductive toxicity study, cd1, Oral, Water, dose end: 2 generation.
Setting [19] is: systemic / in life observation / clinical signs / abnormal feces.
Setting [20] is: systemic / in life observation / clinical signs / abnormal feces + systemic / in life observation / body weight / body weight + systemic / ….
Setting [21] is: systemic / in life observation / body weight / body weight + systemic / in life observation / clinical signs / defecation (diarrhea) + ….
Where [22] appears, read: systemic / pathology gross / oral mucosa / discolored.
The mark [23] stands for this setting: group: reproductive, reproductive / reproductive performance / estrous cycle / absent corpora lutea.
Where [24] appears, read: group: systemic, systemic / hematology / erythrocyte (rbc) count differential / erythrocyte (rbc) + systemic / in life observation / body weight / body ….
The mark [25] stands for this setting: systemic / clinical chemistry / albumin / albumin + systemic / clinical chemistry / protein / protein + systemic / hematology / erythrocyte….
Setting [26] is: systemic / in life observation / body weight / body weight.
[27] abbreviates: systemic / clinical chemistry / cholesterol / cholesterol + systemic / clinical chemistry / triglycerides / triglycerides + systemic / ….
Setting [28] is: systemic / in life observation / clinical signs / defecation (diarrhea) + systemic / in life observation / clinical signs / delayed sexual ….
Where [29] appears, read: group: maternal, reproductive / reproductive performance / estrous cycle / absent corpora lutea.
Where [30] appears, read: group: systemic, systemic / clinical chemistry / alkaline phosphatase (alp/alk) / alkaline phosphatase (alp/alk) + systemic / hematology / mean corpuscular (….
Setting [31] is: group: systemic, systemic / hematology / mean corpuscular (cell) volume (mcv) / mean corpuscular (cell) volume (mcv) + systemic / hematology / mean ….
[32] abbreviates: systemic / in life observation / body weight / body weight + systemic / in life observation / body weight / body weight gain + systemic / ….
Where [33] appears, read: systemic / pathology microscopic / liver / cytoplasmic alteration + systemic / clinical chemistry / cholesterol / cholesterol + systemic / ….
Where [34] appears, read: systemic / clinical chemistry / alkaline phosphatase (alp/alk) / alkaline phosphatase (alp/alk) + systemic / organ weight / kidney / ….
Setting [35] is: group: developmental, developmental / developmental malformation / bone / [other] + developmental / developmental malformation / bone / extra ossification site + ….
[36] abbreviates: group: maternal, systemic / in life observation / body weight / body weight gain + systemic / in life observation / food consumption / food consumption.
[37] abbreviates: group: developmental, developmental / developmental malformation / bone / incomplete ossification + developmental / developmental malformation / bone / short + ….
Setting [38] is: group: maternal, systemic / in life observation / body weight / body weight gain + systemic / in life observation / clinical signs / salivation + systemic / ….
Setting [39] is: group: offspring, developmental / offspring survival late / viability index / viability index + systemic / in life observation / body weight / offspring (pup….
[40] abbreviates: group: parental, systemic / pathology microscopic / thyroid gland / colloid content.
The mark [41] stands for this setting: group: parental, systemic / pathology microscopic / thyroid gland / colloid content + systemic / organ weight / thyroid gland / absolute + systemic / organ ….
[42] abbreviates: group: offspring, systemic / in life observation / body weight / offspring (pup) weight.
Where [43] appears, read: group: parental, systemic / organ weight / kidney / relative to body weight + systemic / organ weight / epididymis / relative to body weight + systemic / ….

Each structure is given as a SMILES string. A value given as a limit tells only on which side of the number the result lay.

As a reminder, the LOAEL is the lowest tested level that showed an adverse finding. As usually defined, the NOAEL is the highest dose or exposure tested at which no adverse effect was seen.

Regarding `CC(C)CO` [2-Methyl-1-propanol], in the series on rat [1], the LEL is 10 ppm, the LOAEL was over 10 ppm, the NEL is 2.5 ppm and the NOAEL was at least 10 ppm. Also, in the series with rabbit [2], the LEL came out at 10 mg/L, the LOAEL was over 10 ppm, the NEL came to 2.5 ppm and the NOAEL was at least 10 ppm.
`NC(=O)CCCCC(N)=O` [Adipamide]: in the series on rat [3], the LEL worked out at 1200 mg/kg/day, the LOAEL was over 1200 mg/kg/day, the NEL is under 1200 mg/kg/day and the NOAEL was at least 1200 mg/kg/day. Further, in the series with mouse [4], the LEL worked out at 3600 mg/kg/day, the LOAEL was over 3600 mg/kg/day, the NEL was under 3600 mg/kg/day and the NOAEL is at least 3600 mg/kg/day.
In the case of `CNC(=O)c1ccccc1Sc1ccc2c(/C=C/c3ccccn3)n[nH]c2c1` [Axitinib], the LEL in the series on dog [5] (setting [19]) is 1 mg/kg/day; in the series with dog [6] (setting [22]), 12 mg/kg/day; in the series on mouse [7] (setting [23]), 5 mg/kg/day; in the series on mouse [7] (group: systemic, systemic / hematology / erythrocyte (rbc) count differential / erythrocyte (rbc) + systemic / in life observation / clinical signs / poor …), 15 mg/kg/day; in the series with dog [8], 1 mg/kg/day; in the series on mouse [9] (setting [26]), 25 mg/kg/day. For the same compound, the LEL was 5 mg/kg/day in the series on dog [10] (setting [28]); 125 mg/kg/day in the series on mouse [11] (setting [29]); 15 mg/kg/day with mouse [11] (setting [31]); 125 mg/kg/day with mouse [12] (setting [29]); 15 mg/kg/day in the series with mouse [12] (setting [31]). Further, the NEL in the series on dog [5] (setting [19]) was under 1 mg/kg/day; in the series with dog [6] (setting [22]), under 12 mg/kg/day; in the series on mouse [7] (setting [23]), under 5 mg/kg/day; in the series on mouse [7] (setting [24]), 5 mg/kg/day; in the series on dog [8], under 1 mg/kg/day; in the series on mouse [9] (setting [26]), under 25 mg/kg/day. For the same compound, the NEL with dog [10] (setting [28]) is under 5 mg/kg/day; in the series with mouse [11] (setting [29]), 15 mg/kg/day; in the series on mouse [11] (setting [30]) it was 5 mg/kg/day; in the series with mouse [12] (setting [29]), 15 mg/kg/day; with mouse [12] (setting [30]) it was 5 mg/kg/day. Further, the LOAEL is over 5 mg/kg/day in the series with dog [5] (setting [20]); over 150 mg/kg/day in the series with dog [6] (setting [21]); over 125 mg/kg/day in the series with mouse [7] (setting [23]); over 125 mg/kg/day in the series on mouse [7] (setting [24]); over 5 mg/kg/day in the series with dog [8]; over 250 mg/kg/day in the series on mouse [9] (setting [25]). Further, the LOAEL is over 50 mg/kg/day in the series on dog [10] (setting [27]); over 125 mg/kg/day with mouse [11] (setting [29]); over 125 mg/kg/day with mouse [11] (setting [30]); over 125 mg/kg/day with mouse [12] (setting [29]); over 125 mg/kg/day in the series on mouse [12] (setting [30]). The NOAEL in the series with dog [5] (setting [20]) is at least 5 mg/kg/day; with dog [6] (setting [21]), at least 150 mg/kg/day; in the series on mouse [7] (setting [23]), at least 125 mg/kg/day; in the series with mouse [7] (setting [24]) it was at least 125 mg/kg/day; in the series on dog [8] it was at least 5 mg/kg/day; in the series with mouse [9] (setting [25]), at least 250 mg/kg/day. The NOAEL was at least 50 mg/kg/day with dog [10] (setting [27]); at least 125 mg/kg/day in the series with mouse [11] (setting [29]); at least 125 mg/kg/day in the series with mouse [11] (setting [30]); at least 125 mg/kg/day in the series with mouse [12] (setting [29]); at least 125 mg/kg/day in the series on mouse [12] (setting [30]).
As to `Cc1cccc(Nc2cc(Cl)nc(SCC(=O)O)n2)c1C` [Pirinixic acid], the LOAEL in the series on hamster (setting [32]) was found to be 0.7 mg/kg/day; in the series on rat [13] (systemic / pathology microscopic / liver / cytoplasmic alteration + systemic / in life observation / body weight / body weight + systemic / …) it was 3 mg/kg/day; in the series on mouse [14] (setting [32]) it was 22 mg/kg/day. In addition, the figures for the NOAEL in the series with hamster (setting [32]), in the series with rat [13] (setting [34]) and with mouse [14] (setting [32]) were 0.4 mg/kg/day, 0.6 mg/kg/day and 12 mg/kg/day, respectively. Also, the figures for the LEL in the series with hamster (setting [33]), with rat [13] (setting [34]) and in the series with mouse [14] (setting [33]) were 0.4 mg/kg/day, 0.3 mg/kg/day and 0.9 mg/kg/day, respectively. For the same compound, the NEL was under 0.4 mg/kg/day with hamster (setting [33]), under 0.3 mg/kg/day with rat [13] (setting [34]) and under 0.9 mg/kg/day in the series with mouse [14] (setting [33]).
Consider `Cc1[nH]n(C)c(=O)c1C(=O)c1ccc(C(F)(F)F)cc1S(C)(=O)=O` [Pyrasulfotole], for which the LEL is 75 mg/kg/day in the series with rabbit [15] (setting [35]); 250 mg/kg/day in the series on rabbit [15] (setting [36]); 100 mg/kg/day in the series on rat [16] (setting [37]); 100 mg/kg/day in the series with rat [16] (setting [38]); 3.68 mg/kg/day with rat [17] (setting [39]); 2.5 mg/kg/day with rat [17] (setting [41]). For the same compound, the LOAEL was 75 mg/kg/day in the series with rabbit [15] (setting [35]); 250 mg/kg/day in the series with rabbit [15] (setting [36]); 100 mg/kg/day with rat [16] (setting [37]); 100 mg/kg/day in the series with rat [16] (setting [38]); over 354 mg/kg/day with rat [17] (setting [39]); 2.5 mg/kg/day in the series on rat [17] (setting [40]). For the same compound, the NEL was 10 mg/kg/day in the series on rabbit [15] (setting [35]); 75 mg/kg/day with rabbit [15] (setting [36]); 10 mg/kg/day with rat [16] (setting [37]); 10 mg/kg/day with rat [16] (setting [38]); under 3.68 mg/kg/day in the series with rat [17] (setting [39]); under 2.5 mg/kg/day in the series on rat [17] (setting [41]). Moreover, the NOAEL with rabbit [15] (setting [35]) is 10 mg/kg/day; in the series on rabbit [15] (setting [36]) it was 75 mg/kg/day; in the series with rat [16] (setting [37]), 10 mg/kg/day; with rat [16] (setting [38]), 10 mg/kg/day; in the series with rat [17] (setting [39]), at least 354 mg/kg/day; in the series on rat [17] (setting [40]), under 2.5 mg/kg/day.
For `CC(=O)OCCOCCOCCOC(C)=O` [Triethylene glycol diacetate], in the series on mouse [18] (setting [42]), the LEL stood at 4000 mg/kg/day, the lowest-observed-adverse-effect level (LOAEL) is over 4000 mg/kg/day, the NEL is 2000 mg/kg/day and the NOAEL was at least 4000 mg/kg/day. The NEL in the series on mouse [18] (group: parental, systemic / organ weight / kidney / relative to body weight) was determined as 2000 mg/kg/day. In the series with mouse [18] (setting [43]), the LEL worked out at 4000 mg/kg/day, the lowest-observed-adverse-effect level (LOAEL) was over 4000 mg/kg/day and the NOAEL was at least 4000 mg/kg/day.
